Measurements as given in US20220220095A1, “N-((HETEROARYL)METHYL)-1-TOSYL-1H-PYRAZOLE-3-CARBOXAMIDE DERIVATIVES AS Kv3 POTASSIUM CHANNEL ACTIVATORS FOR TREATING NEUROLOGICAL AND [sequence] DISORDERS” (H. Lundbeck A/S, priority 2019, published 2022).

Target: T1, hKv3.1b (Homo sapiens, UniProt P48547)
T1 construct: expressed in transfected cells
T1 sequence (P48547 1-585 isoform P48547-2): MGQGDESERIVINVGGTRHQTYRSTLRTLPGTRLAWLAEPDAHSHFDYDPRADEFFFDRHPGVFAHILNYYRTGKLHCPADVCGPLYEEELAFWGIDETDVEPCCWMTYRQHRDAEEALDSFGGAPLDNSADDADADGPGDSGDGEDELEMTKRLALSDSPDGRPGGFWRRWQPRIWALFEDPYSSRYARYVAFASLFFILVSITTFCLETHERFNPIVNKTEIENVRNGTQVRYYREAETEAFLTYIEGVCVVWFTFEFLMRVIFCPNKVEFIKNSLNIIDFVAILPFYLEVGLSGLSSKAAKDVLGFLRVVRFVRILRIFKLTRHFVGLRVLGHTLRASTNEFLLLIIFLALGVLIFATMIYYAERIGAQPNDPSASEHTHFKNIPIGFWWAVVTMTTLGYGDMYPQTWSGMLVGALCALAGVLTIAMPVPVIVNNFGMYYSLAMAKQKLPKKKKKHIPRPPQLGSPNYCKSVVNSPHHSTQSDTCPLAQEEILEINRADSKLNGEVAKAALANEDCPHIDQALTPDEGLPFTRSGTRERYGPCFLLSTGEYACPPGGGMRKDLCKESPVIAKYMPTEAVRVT
Test: Automated whole-cell patch-clamp (QPatch-16x) on HEK-293 cells stably expressing hKv3.1b: shift of voltage threshold for channel activation
Assay type: cell-based
Details: HEK-293 hKv3.1b; for ECdelta5mV: concentration needed to shift the threshold 5 mV, read out from fitted concentration response curve; for Max Delta threshold: maximum absolute shift of activation threshold to more hyperpolarized potentials at the tested concentrations (0.37, 1.11, 3.33, 10, 30 μM)

Row | SMILES | ECdelta5mV [nM] | Max Delta threshold [mV]
1 | Cc1ccc(CNC(=O)c2ccn(S(=O)(=O)c3ccc(F)cc3)n2)nc1 [Compound 34, 1-(4-fluorobenzene-1-sulfonyl)-N-[(5-methylpyridin-2-yl)methyl]-1H-pyrazole-3-carboxamide] | 2800 | 17
2 | COc1ccc(S(=O)(=O)n2ccc(C(=O)NCc3cnn(C)c3)n2)cc1 [Compound 41, 1-(4-methoxybenzene-1-sulfonyl)-N-[(1-methyl-1H-pyrazol-4-yl)methyl]-1H-pyrazole-3-carboxamide] | 1200 | 25
3 | Cc1ccc(S(=O)(=O)n2ccc(C(=O)NCc3ncc(C)o3)n2)cc1 [Compound 30, 1-(4-methylbenzene-1-sulfonyl)-N-[(5-methyl-1,3-oxazol-2-yl)methyl]-1H-pyrazole-3-carboxamide] | 3400 | 15

Continued, values first:

Row | ECdelta5mV [nM] | Max Delta threshold [mV] | SMILES
4 | 2000 | 17 | Cc1ccc(S(=O)(=O)n2ccc(C(=O)NCc3ccon3)n2)cc1 [Compound 58, 1-(4-methylbenzene-1-sulfonyl)-N-[(1,2-oxazol-3-yl)methyl]-1H-pyrazole-3-carboxamide]
5 | 2000 | 19 | Cc1ccc(S(=O)(=O)n2ccc(C(=O)NCc3cocn3)n2)cc1 [Compound 49, 1-(4-methylbenzene-1-sulfonyl)-N-[(1,3-oxazol-4-yl)methyl]-1H-pyrazole-3-carboxamide]
6 | 1500 | 16 | Cc1ccc(S(=O)(=O)n2ccc(C(=O)NCc3cscn3)n2)cc1 [Compound 52, 1-(4-methylbenzene-1-sulfonyl)-N-[(1,3-thiazol-4-yl)methyl]-1H-pyrazole-3-carboxamide]
